Measured values reported in patent US9210927B2, “Pesticidal compositions and processes related thereto” (Dow AgroSciences LLC, priority 2013, dated 2015).

Legend:
Type in all cases: in vivo
[1] = system: GPA (Myzus persicae); test: Bioassays on Green Peach Aphid (GPA), foliar spray on cabbage seedlings; settings: 72 h, corrected % control (Abbott), 200 ppm spray on cabbage seedlings, three days, read-out: GPA Rating
Description: Bioassays on Green Peach Aphid (“GPA”) (Myzus persicae) Certain molecules disclosed in this document were tested against GPA using procedures described in the following example. In the reporting of the results, the “GPA Rating Table” was used (See Table Section). Cabbage seedlings grown in 3-inch pots, with 2-3 small (3-5 cm) true leaves, were used as test substrate. The seedlings were infested with 20-50 GPA (wingless adult and nymph stages) one day prior to chemical application. Four pots with individual seedlings were used for each treatment. Test compounds (2 mg) were dissolved in 2 mL of acetone/MeOH (1:1) solvent, forming stock solutions of 1000 ppm test compound. The stock solutions were diluted 5× with 0.025% Tween 20 in H2O to obtain the solution at 200 ppm test compound. A hand-held aspirator-type sprayer was used for spraying a solution to both sides of […] leaves until runoff. Reference plants (solvent check) were sprayed with the diluent only containing 20% by volume of acetone/MeOH (1:1) solvent. Treated plants were held in a holding room for three days at approximately 25° C. and ambient relative humidity (RH) prior to grading. Evaluation was conducted by counting the number of live aphids per plant under a microscope. Percent Control was measured by using Abbott's correction formula (W. S. Abbott, “A Method of Computing the Effectiveness of an Insecticide” J. Econ. Entomol. 18 (1925), pp. 265-267) as follows. Corrected % Control=100*(X−Y)/X • where • X=No. of live aphids on solvent check plants and • Y=No. of live aphids on treated plants The results are indicated in the table entitled “Table 3: Assay Results” (See Table Section).

[2] = system: CEW (Helicoverpa zea); test: Bioassays on Corn Earworm (CEW), 128-well diet tray assay; settings: Helicoverpa zea, 168 h; percent mortality, second instar larvae, 50 μg/cm^2 on artificial diet, five to seven days, 25° C.; read-out: CEW Rating
Description: (§1) Bioassays on Beet Armyworm (“BAW”) and Corn Earworm (“CEW”) and Cabbage Looper (“CL”)
(§2) Certain molecules disclosed in this document were tested against BAW and CEW and CL using procedures described in the following examples. In the reporting of the results, the “BAW & CEW & CL Rating Table” was used (See Table Section).
Bioassays on CEW (Helicoverpa zea)
Bioassays on CEW were conducted using a 128-well diet tray assay. one to five second instar CEW larvae were placed in each well (3 mL) of the diet tray that had been previously filled with 1 mL of artificial diet to which 50 μg/cm^2 of the test compound (dissolved in 50 μL of 90:10 acetone-water mixture) had been applied (to each of eight wells) and then allowed to dry. Trays were covered with a clear self-adhesive cover, and held at 25° C., 14:10 light-dark for five to seven days. Percent mortality was recorded for the larvae in each well; activity in the eight wells was then averaged. The results are indicated in the table entitled “Table 3: Assay Results” (See Table Section).

[3] = system: BAW (Spodoptera exigua); test: Bioassays on Beet Armyworm (BAW), 128-well diet tray assay; settings: Spodoptera exigua, 168 h, read-out: BAW Rating
Description: as §1, §2
Bioassays on BAW (Spodoptera exigua)
Bioassays on BAW were conducted using a 128-well diet tray assay. one to five second instar BAW larvae were placed in each well (3 mL) of the diet tray that had been previously filled with 1 mL of artificial diet to which 50 μg/cm^2 of the test compound (dissolved in 50 μL of 90:10 acetone-water mixture) had been applied (to each of eight wells) and then allowed to dry. Trays were covered with a clear self-adhesive cover, and held at 25° C., 14:10 light-dark for five to seven days. Percent mortality was recorded for the larvae in each well; activity in the eight wells was then averaged. The results are indicated in the table entitled “Table 3: Assay Results” (See Table Section).

SMILES	pest or weed control at 200 ppm [1]	pest or weed control at 50 µg/cm2 [2]	pest or weed control at 50 µg/cm2 [3]
CNC(=O)c1ccc(/C=C/C(c2cc(Cl)cc(Cl)c2)C(F)(F)F)cc1 (stereo not drawn) [AC1]	0 to 80%		
CN(C)C(=O)c1ccc(/C=C/C(c2cc(Cl)cc(Cl)c2)C(F)(F)F)cc1 (stereo not drawn) [AC3]	0 to 80%		
O=C(NCC(F)(F)F)c1ccc(/C=C/C(c2cc(Cl)cc(Cl)c2)C(F)(F)F)cc1 (stereo not drawn) [AC4]	0 to 80%	50 to 100%	
O=C(c1ccc(/C=C/C(c2cc(Cl)cc(Cl)c2)C(F)(F)F)cc1)N1CCOCC1 (stereo not drawn) [AC5]	0 to 80%		
Cc1cc(/C=C/C(c2cc(Cl)cc(Cl)c2)C(F)(F)F)ccc1C(=O)NCC(F)(F)F (stereo not drawn) [AC6, (E)-4-(3-(3,5-Dichlorophenyl)-4,4,4-trifluorobut-1-enyl)-2-methyl-N-(2,2,2-trifluoroethyl)benzamide]	0 to 80%	50 to 100%	
Cc1cc(/C=C/C(c2cc(Cl)cc(Cl)c2)C(F)(F)F)ccc1C(=O)NCc1ccc(Cl)nc1 (stereo not drawn) [AC7]	0 to 80%	50 to 100%	50 to 100%
Cc1cc(/C=C/C(c2cc(Cl)cc(Cl)c2)C(F)(F)F)ccc1C(=O)N1CCCC1=O (stereo not drawn) [AC8]	0 to 80%	0 to 50%	
Cc1cc(/C=C/C(c2cc(Cl)cc(Cl)c2)C(F)(F)F)ccc1C(=O)NCc1ccccc1F (stereo not drawn) [AC9]	0 to 80%	50 to 100%	50 to 100%
Cc1cc(/C=C/C(c2cc(Cl)cc(Cl)c2)C(F)(F)F)ccc1C(=O)NC1CSC1 (stereo not drawn) [AC10]	0 to 80%	50 to 100%	50 to 100%
Cc1cc(/C=C/C(c2cc(Cl)cc(Cl)c2)C(F)(F)F)ccc1C(=O)NC1CS(=O)(=O)C1 (stereo not drawn) [AC13]	0 to 80%	50 to 100%	50 to 100%
Cc1cc(/C=C/C(c2cc(Cl)cc(Cl)c2)C(F)(F)F)ccc1C(=O)NCc1cnc(Cl)s1 (stereo not drawn) [AC15]	0 to 80%	50 to 100%	50 to 100%
Cc1cc(/C=C/C(c2cc(Cl)cc(Cl)c2)C(F)(F)F)ccc1C(=O)NNc1ccccc1F (stereo not drawn) [AC17]	0 to 80%	50 to 100%	50 to 100%
Cc1cc(/C=C/C(c2cc(Cl)cc(Cl)c2)C(F)(F)F)ccc1C(=O)NCc1ncccn1 (stereo not drawn) [AC18]	0 to 80%	50 to 100%	50 to 100%
Cc1cc(/C=C/C(c2cc(Cl)cc(Cl)c2)C(F)(F)F)ccc1C(=O)NCC1CCOC1 (stereo not drawn) [AC19]	0 to 80%		
Cc1cc(/C=C/C(c2cc(Cl)cc(Cl)c2)C(F)(F)F)ccc1C(=O)NCC(=O)NNC(=O)C1CC1 (stereo not drawn) [AC47]	0 to 80%		
Cc1cc(/C=C/C(c2cc(Cl)cc(Cl)c2)C(F)(F)F)ccc1C(=O)NCc1nccn1C (stereo not drawn) [AC50]	0 to 80%		50 to 100%
COc1cc(/C=C/C(c2cc(Cl)c(F)c(Cl)c2)C(F)(F)F)ccc1C(=O)NCc1ccc(Cl)nc1 (stereo not drawn) [AC70]	0 to 80%		
Cc1cc(/C=C\C(c2cc(Cl)cc(Cl)c2)C(F)(F)F)ccc1C(=O)NCc1ccc(Cl)nc1 (stereo not drawn) [AC94]	0 to 80%	0 to 50%	
Cc1cc(/C=C/C(c2cc(Cl)cc(Cl)c2)C(F)(F)F)ccc1C(=O)N(C)Cc1ccc(Cl)nc1 (stereo not drawn) [AC117]	0 to 80%		50 to 100%
